# Measurements as given in paper PMC7419507, “In vitro Cas9-assisted editing of modular polyketide synthase genes to produce desired natural product derivatives” (Nature Communications, 2020).
# Values joined by “and” are separate entries in the source; they are usually repeats but may differ in a detail not shown here. Identical values can stand only once. “Also recorded” adds a separate entry of the source.
# Assays:
# [1] = target: T1, FKBP12 and mTOR (Homo sapiens, UniProt P42345+P62942); assay: Fluoppi analysis: induction of FKBP12-mTOR complex formation in transfected HeLa cells; type: cell-based; conditions: for Foci intensity: raw data, one replicate per line
# T1 construct: host or cells: HeLa cells
# T1 sequence (P42345 2025-2114 limits assumed): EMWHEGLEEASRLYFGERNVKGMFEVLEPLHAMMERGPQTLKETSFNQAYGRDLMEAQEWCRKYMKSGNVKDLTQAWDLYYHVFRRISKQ
# T1 sequence (P62942 whole entry): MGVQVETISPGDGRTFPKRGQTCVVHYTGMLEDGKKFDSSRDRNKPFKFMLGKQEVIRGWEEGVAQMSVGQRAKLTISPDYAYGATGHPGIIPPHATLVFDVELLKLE
# Summary of the method: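 Complex formation read as fluorescent foci: foci intensity over total per-cell intensity, imaged (×20, 9 fields/well) after fixation and Hoechst stain, giving EC50. Cells: HeLa transiently expressing hAG-mTOR and Ash-FKBP12, exposed to compound concentrations for 1 h at 37 °C.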
# [2] = Cytotoxicity assay (CellTiter-Glo, 72 h), Jurkat; type: cell-based; conditions: human, Jurkat cells (T lymphoma), raw data (replicates)
# Summary of the method: (§1)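 Incubate 4 h at 37 °C, 5% CO2. Add 2-fold compound dilutions, 0.5% DMSO. After 72 h, read CellTiter-Glo luminescence.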
# [3] = system: T lymphoma Jurkat cells; assay: Cytotoxicity assay (CellTiter-Glo, 72 h), Jurkat; type: cell-based; conditions: raw data (replicates)
# Summary of the method: as §1
# [4] = Cytotoxicity assay (CellTiter-Glo, 72 h), SKOV-3; type: cell-based, human; conditions: human, raw replicate data, read-out: SKOV3 viability (%)
# Summary of the method: as §1
# [5] = system: human ovarian adenocarcinoma SKOV-3 cells; assay: Cytotoxicity assay (CellTiter-Glo, 72 h), SKOV-3; type: cell-based; conditions: raw replicate data
# Summary of the method: as §1
smiles,measurement,setting,value
"COC1CC2CCC(C)C(O)(O2)C(=O)C(=O)N2CCCCC2C(=O)OC(C(C)CC2CCC(O)C(OC)C2)CC(=O)C(C)C=C(C)C(O)C(OC)C(=O)C(C)CC(C)C=CCCC=C1C (stereo not shown) [Compound 15, 19,20-dihidro-rapamycin]",EC50,[1],6.3 nM
same,"PPI-inducing (binding enhancing) activity between FKBP12 and mTOR compared with rapamycin (1), in words",[1]; Fluoppi,as potent as rapamycin; also recorded: comparable level to that of rapamycin
same,Foci intensity,[1]; conc 9.53674e-5 uM,0.01733 and 0.01067 and 0.005693
same,Foci intensity,[1]; conc 0.000190735 uM,0.01213 and 0.0332 and 0.01291
same,Foci intensity,[1]; conc 0.00038147 uM,0.02253 and 0.02952 and 0.01485
same,Foci intensity,[1]; conc 0.000762939 uM,0.009661 and 0.01831 and 0.03236
same,Foci intensity,[1]; conc 0.00152588 uM,0.02962 and 0.01659 and 0.0505
same,Foci intensity,[1]; conc 0.00305176 uM,0.04113 and 0.07899 and 0.06427
same,Foci intensity,[1]; conc 0.00610352 uM,0.1575 and 0.2102 and 0.171
same,Foci intensity,[1]; conc 0.012207 uM,0.3436 and 0.3356 and 0.3668
same,Foci intensity,[1]; conc 0.0244141 uM,0.3409 and 0.4046 and 0.3885
same,Foci intensity,[1]; conc 0.0488281 uM,0.3546 and 0.3355 and 0.3935
same,Foci intensity,[1]; conc 0.0976562 uM,0.3693 and 0.3135 and 0.3917
same,Foci intensity,[1]; conc 0.195312 uM,0.3656 and 0.4341 and 0.3989
same,Foci intensity,[1]; conc 0.390625 uM,0.405 and 0.3385 and 0.3714
same,Foci intensity,[1]; conc 0.78125 uM,0.3465 and 0.4349 and 0.4007
same,Foci intensity,[1]; conc 1.5625 uM,0.3165 and 0.3834 and 0.336
same,Foci intensity,[1]; conc 3.125 uM,0.3857 and 0.3532 and 0.3973
same,Foci intensity,[1]; conc 6.25 uM,0.3637 and 0.3694 and 0.3083
same,Foci intensity,[1]; conc 12.5 uM,0.3396 and 0.3224 and 0.3917
same,Foci intensity,[1]; conc 25 uM,0.3402 and 0.3226 and 0.4132
same,Foci intensity,[1]; conc 50 uM,0.4382 and 0.3564 and 0.4638
same,"viability at 72 h, 9.53674e-05 uM",[2]; conc 9.53674e-5 uM,98.3%
same,"viability at 72 h, 0.000190735 uM",[2]; conc 0.000190735 uM,102%
same,"viability at 72 h, 0.00038147 uM",[2]; conc 0.00038147 uM,96.7%
same,"viability at 72 h, 0.000762939 uM",[2]; conc 0.000762939 uM,101%
same,"viability at 72 h, 0.00152588 uM",[2]; conc 0.00152588 uM,97.4%
same,"viability at 72 h, 0.00305176 uM",[2]; conc 0.00305176 uM,94.6%
same,"viability at 72 h, 0.00610352 uM",[2]; conc 0.00610352 uM,96.3%
same,"viability at 72 h, 0.012207 uM",[2]; conc 0.012207 uM,95.5%
same,"viability at 72 h, 0.0244141 uM",[2]; conc 0.0244141 uM,98.5%
same,"viability at 72 h, 0.0488281 uM",[2]; conc 0.0488281 uM,84.9%
same,"viability at 72 h, 0.0976562 uM",[2]; conc 0.0976562 uM,83.5%
same,"viability at 72 h, 0.195312 uM",[2]; conc 0.195312 uM,65.5%
same,"viability at 72 h, 0.390625 uM",[2]; conc 0.390625 uM,61.7%
same,"viability at 72 h, 0.78125 uM",[2]; conc 0.78125 uM,43.6%
same,"viability at 72 h, 1.5625 uM",[2]; conc 1.5625 uM,40.7%
same,"viability at 72 h, 3.125 uM",[2]; conc 3.125 uM,28.2%
same,"viability at 72 h, 6.25 uM",[2]; conc 6.25 uM,26.6%
same,"viability at 72 h, 12.5 uM",[2]; conc 12.5 uM,25.9%
same,"viability at 72 h, 25 uM",[2]; conc 25 uM,1%
same,Jurkat viability (%),[3]; conc 9.53674e-5 uM,103.4% and 100.1%
same,Jurkat viability (%),[3]; conc 0.000190735 uM,103.2%
same,Jurkat viability (%),[3]; conc 0.00038147 uM,100.9% and 97.1%
same,Jurkat viability (%),[3]; conc 0.000762939 uM,96.9%
same,Jurkat viability (%),[3]; conc 0.00152588 uM,95.1% and 104.8%
same,Jurkat viability (%),[3]; conc 0.00305176 uM,96.4% and 103.3%
same,Jurkat viability (%),[3]; conc 0.00610352 uM,98.6% and 98.2%
same,Jurkat viability (%),[3]; conc 0.012207 uM,89.1% and 95.4%
same,Jurkat viability (%),[3]; conc 0.0244141 uM,88.3% and 94.3%
same,Jurkat viability (%),[3]; conc 0.0488281 uM,80.5% and 86.7%
same,Jurkat viability (%),[3]; conc 0.0976562 uM,80.2% and 77.6%
same,Jurkat viability (%),[3]; conc 0.195312 uM,65.6% and 66.3%
same,Jurkat viability (%),[3]; conc 0.390625 uM,56.5% and 56.0%
same,Jurkat viability (%),[3]; conc 0.78125 uM,41.6% and 42.0%
same,Jurkat viability (%),[3]; conc 1.5625 uM,32.3% and 35.9%
same,Jurkat viability (%),[3]; conc 3.125 uM,27.6% and 27.0%
same,Jurkat viability (%),[3]; conc 6.25 uM,24.6% and 25.7%
same,Jurkat viability (%),[3]; conc 12.5 uM,23.9% and 25.0%
same,Jurkat viability (%),[3]; conc 25 uM,1.5% and 1.1%
same,Jurkat viability (%),[3]; conc 50 uM,0.429% and 0.113% and 0.047%
same,"viability at 72 h, 9.53674e-05 uM","[4]; SKOV-3 cells (ovarian adenocarcinoma), conc 9.53674e-5 uM",106%
same,"viability at 72 h, 0.000190735 uM","[4]; SKOV-3 cells (ovarian adenocarcinoma), conc 0.000190735 uM",101%
same,"viability at 72 h, 0.00038147 uM","[4]; SKOV-3 cells (ovarian adenocarcinoma), conc 0.00038147 uM",102%
same,"viability at 72 h, 0.000762939 uM","[4]; SKOV-3 cells (ovarian adenocarcinoma), conc 0.000762939 uM",102%
same,"viability at 72 h, 0.00152588 uM","[4]; SKOV-3 cells (ovarian adenocarcinoma), conc 0.00152588 uM",105%
same,"viability at 72 h, 0.00305176 uM","[4]; SKOV-3 cells (ovarian adenocarcinoma), conc 0.00305176 uM",108%
same,"viability at 72 h, 0.00610352 uM","[4]; SKOV-3 cells (ovarian adenocarcinoma), conc 0.00610352 uM",104%
same,"viability at 72 h, 0.012207 uM","[4]; SKOV-3 cells (ovarian adenocarcinoma), conc 0.012207 uM",106%
same,"viability at 72 h, 0.0244141 uM","[4]; SKOV-3 cells (ovarian adenocarcinoma), conc 0.0244141 uM",102%
same,"viability at 72 h, 0.0488281 uM","[4]; SKOV-3 cells (ovarian adenocarcinoma), conc 0.0488281 uM",95.2%
same,"viability at 72 h, 0.0976562 uM","[4]; SKOV-3 cells (ovarian adenocarcinoma), conc 0.0976562 uM",99.4%
same,"viability at 72 h, 0.195312 uM","[4]; SKOV-3 cells (ovarian adenocarcinoma), conc 0.195312 uM",91%
same,"viability at 72 h, 0.390625 uM","[4]; SKOV-3 cells (ovarian adenocarcinoma), conc 0.390625 uM",84.3%
same,"viability at 72 h, 12.5 uM","[4]; SKOV-3 cells (ovarian adenocarcinoma), conc 12.5 uM",63.5%
same,"viability at 72 h, 25 uM","[4]; SKOV-3 cells (ovarian adenocarcinoma), conc 25 uM",51.1%
same,"viability at 72 h, 50 uM","[4]; SKOV-3 cells (ovarian adenocarcinoma), conc 50 uM",4%
same,"viability at 72 h, 0.78125 uM","[4]; SKOV-3 ovarian adenocarcinoma cells, conc 0.78125 uM",77.1%
same,"viability at 72 h, 1.5625 uM","[4]; SKOV-3 ovarian adenocarcinoma cells, conc 1.5625 uM",85.7%
same,"viability at 72 h, 3.125 uM","[4]; SKOV-3 ovarian adenocarcinoma cells, conc 3.125 uM",72.5%
same,"viability at 72 h, 6.25 uM","[4]; SKOV-3 ovarian adenocarcinoma cells, conc 6.25 uM",65.8%
same,SKOV3 viability (%),[5]; conc 9.53674e-5 uM,104.4%
same,SKOV3 viability (%),[5]; conc 0.000190735 uM,106.7% and 103.7%
same,SKOV3 viability (%),[5]; conc 0.00038147 uM,104.3% and 105.3%
same,SKOV3 viability (%),[5]; conc 0.000762939 uM,104.7% and 102.3%
same,SKOV3 viability (%),[5]; conc 0.00152588 uM,105.8%
same,SKOV3 viability (%),[5]; conc 0.00610352 uM,104.8% and 103.3%
same,SKOV3 viability (%),[5]; conc 0.012207 uM,100.2% and 102.5%
same,SKOV3 viability (%),[5]; conc 0.0244141 uM,99.1% and 104.1%
same,SKOV3 viability (%),[5]; conc 0.0488281 uM,98.9% and 94.0%
same,SKOV3 viability (%),[5]; conc 0.0976562 uM,97.9% and 101.5%
same,SKOV3 viability (%),[5]; conc 0.195312 uM,91.8% and 87.6%
same,SKOV3 viability (%),[5]; conc 0.390625 uM,93.7% and 87.4%
same,SKOV3 viability (%),[5]; conc 0.78125 uM,82.2% and 82.5%
same,SKOV3 viability (%),[5]; conc 1.5625 uM,81.5% and 77.5%
same,SKOV3 viability (%),[5]; conc 3.125 uM,73.9% and 77.4%
same,SKOV3 viability (%),[5]; conc 6.25 uM,68.2% and 74.1%
same,SKOV3 viability (%),[5]; conc 12.5 uM,67.0% and 61.2%
same,SKOV3 viability (%),[5]; conc 25 uM,54.3% and 53.4%
same,SKOV3 viability (%),[5]; conc 50 uM,3.9% and 4.5%
